# B1: miR-148b mimic: miR-148b mimic oligonucleotide; in a particular embodiment has SEQ ID NO: 1, the human precursor miR-148b sequence (nucleic acid)
# chain: CAAGCACGAUUAGCAUUUGAGGUGAAGUUCUGUUAUACACUCAGGCUGUGGCUCUCUGAAAGUCAGUGCAUCACAGAACUUUGUCUCGAAAGCUUUCUA
# modifications: listed as RNA, chemistry not given here
# Key:
# Format in all cases: cell-based, human
# HUVECs [1] = assay: Gene (qPCR) and protein (Western blot) expression in transfected HUVECs
# Procedure: (§1) Human umbilical vein ECs (HUVECs; Lonza) were grown in EGM-2 (comprising EBM-2 with growth factors and other supplements) with 2% Foetal Bovine Serum. Confluent HUVECs were treated with 10 ng/ml TNF-α, IL-1β, TGFβ2 (PeproTech); medium and cytokines were changed every two days. SB431542 (Tocris) has been used at the dose of 10 μM. HEK293T cells (ATCC®, CRL-11268) were cultured in D-MEM with 10% FBS (Life Technologies).
# (§2) Total RNA was extracted using miReasy kit (Qiagen). Real-time quantification to measure miRNAs was performed with the TaqMan miRNA reverse transcription kit and miRNA assay (Life Technology) using Lightcycler 480 (Roche). miRNAs expression was normalized to the U6 […] (snRU6). For mRNA analysis, cDNA was amplified by quantitative real-time PCR (qPCR) and normalized to 18S ribosomal RNA. Each reaction was performed in triplicate. Quantification was performed by the 2^−ΔΔCt method^52. qPCR was used to measure the expression of miR-148b (miR-148b-3p Thermo Fisher Scientific, Cat. #4426961), snRU6 (ThermoFisher Scientific, Cat. #4331182), TGFβ2, SMAD2, CD31, VE-Cadherin, COL1A1, α-SMA, SLUG, VIM, SNAIL, TWIST, ZEB1/2 and 18S rRNA. Primers are pre-designed from Sigma (KiCgStart™ Primers).
# (§3) Lipofectamine RNAiMAX (Thermo Fisher Scientific) was used to transfect HUVECs with miR-148b mimic, anti-miR-148b and mimic or anti-miR control (25 nM and […], respectively final concentration) or with siRNA targeting SMAD2 (20 nM final concentration), according to the manufacturer's instructions. jetPEI-HUVECs (Polyplus) was used to transfect HUVECs with DNA plasmids. The following functional assays were performed: BrdU incorporation assay using Cell Proliferation colorimetric assay (Roche); Matrigel assay with HUVECs was performed as previously described using BD Matrigel Basement Membrane Matrix (BD Biosciences)^53.
# (§4) Proteins were extracted from cultured cells or muscles by using ice-cold buffer A (50 mM Hepes, 150 mM NaCl, 1 mM EDTA, 1 mM EGTA, 25 mM NaF, 5 mM NaPPi, 1%Triton, 1% NP40, 1 mM Na3VO4, 0.25% sodium deoxycholate, 0.5 mM Na-orthovanadate, 1 mM benzamidine, 0.1 mM phenylmethylsulfonyl fluoride). Protein concentration was determined using the Bio-Rad Protein Assay Reagent (Bio-Rad Laboratories, UK). Detection of proteins by Western blot analyses was done following separation of whole cell extracts (20 μg) on SDS-polyacrylamide gels. Proteins were transferred to nitrocellulose membranes and probed with the following antibodies: TGFβ2 (Abcam, ab36495, 1:1000), SMAD2 (SantaCruz Biotechnology, Santa Cruz, Calif., USA; #3102, 1:1000), p-SMAD2 (465/467) (Cell Signaling; #3108, 1:1000); CD31 (Abcam., 1:1000), VE-Cadherin (Abcam, ab33168, 1:1000), COL1A1 (Abcam, ab138492, 1:200), FSP-1 (5100A4; Abcam, ab41532, 1:1000), SLUG (Abcam, ab27568, 1:1000), β-actin (Abcam, ab16039, 1:4000), HDAC3 (GeneTex GTX113303, 1:1000) and GAPDH (GeneTex, GT239, 1:1000) (both used as loading control). For detection, the inventors used secondary antibodies conjugated to horseradish peroxidase which were rabbit anti-mouse (Abcam, ab97046, 1:5000) and goat anti-rabbit (Abcam, ab6721, 1:10000). Detection was developed by chemiluminescence reaction (ECL) (Immunoblot, Millipore, 23225).
# HUVECs [2] = assay: ECIS plasma membrane capacitance analysis; settings: HUVECs knock-down for miR-148b
# Procedure: Confluent HUVECs were transfected with controls or miR-148b mimic or anti-miR-148b and, plated on the ECIS chip array (8W1E or 8W10E). The migration speed was calculated in μm/h, capacitance of the plasma membrane is Cm (μF/cm^2) as reported in Giaever, I, and Keese, C R (1991)^29.
# [3] = tested on: HUVECs treated with TNF-α/IL-1β; assay: Rescue of TNF-α/IL-1β-induced EndMT in HUVECs; settings: mimic-transfected HUVECs, TNF-α/IL-1β 6 days
# Procedure: as §1, §2, §3, §4
# Cells were fixed using 4% paraformaldehyde in PBS at room temperature for 15 min. For intracellular staining, fixed cells were permeabilized using 0.5% Triton X-100 in PBS (Sigma-Aldrich) or 0.1% Saponin in PBS at room temperature for 10 min. The blocking of […] antibody activity was performed using 3% bovine serum albumin (BSA) in PBS for 1 hour. Samples were incubated with antibodies to CD31 (Abcam, ab28364, 1:50), VE-cadherin (Abcam, ab33168, 1:100), FSP-1 (Abcam, ab41532, 1:200) and COL1A1 (Abcam, ab138492, 1:100) in PBS containing 1% BSA at 4° C. overnight. […]
# 3′UTR of SMAD2 = assay: Luciferase reporter assay, wild-type 3′UTR of SMAD2; settings: 48 h post-co-transfection, HEK293T cells or HUVECs; mutation of the binding sites restored it
# Source text: (§5) Luciferase assay has been performed as previously described^53. TGFB2 3′-UTR and SMAD2 3′-UTR vectors were cloned in pMIR-Reporter (Life Technology). Primers are used for the cloning are: TGFβ2 3′UTR: Forward 5′-[…]-3′ (SEQ ID NO: 7), Reverse 5′-[…]-3′ (SEQ ID NO: 8); SMAD2 3′UTR: Forward 5′-[…]-3′ (SEQ ID NO: 9), Reverse 5′-[…]-3′ (SEQ ID NO: 10). Primers for 3′UTR mutation: TGFB2: Forward […] (SEQ ID NO: 11) and Reverse […] (SEQ ID NO: 12); SMAD2 Forward […] (SEQ ID NO: 13) and Reverse […] (SEQ ID NO: 14). Luciferase constructs were transfected into HEK293T cells or HUVECs together with miR-148b mimics or p-SV-beta-Gal control vector. Cells were cultured for 48 h and assayed with the Luciferase and β-Galactosidase Reporter Assay Systems (Promega). Luciferase values were normalized to protein concentration and β-galactosidase activity.
# 3′UTR of TGFB2 = assay: Luciferase reporter assay, wild-type 3′UTR of TGFB2; settings: 48 h post-co-transfection, HEK293T cells or HUVECs; mutation of the binding sites restored it
# Source text: as §5
Molecule,"expression of target genes TGFB2 and SMAD2 (mRNA) (HUVECs [1]; anti-miR 75 mM, 48 hrs)","CD31 and VE-cadherin (Western blot) (HUVECs [1]; anti-miR, 48 hrs)","SLUG (Western blot) (HUVECs [1]; anti-miR, 48 hrs)","SLUG expression (mRNA) (HUVECs [1]; anti-miR, 48 hrs)","TGFB2, SMAD2 and its phosphorylation (Western blot) (HUVECs [1]; anti-miR, 48 hrs)","expression of CD31 and VE-Cadherin (mRNA) (HUVECs [1]; anti-miR, 48 hrs)","expression of COL1A1 and FSP-1 (mRNA) (HUVECs [1]; anti-miR, 48 hrs)","mesenchymal markers COL1A1, FSP-1 (Western blot) (HUVECs [1]; anti-miR, 48 hrs)","α-SMA or vimentin (VIM) levels (HUVECs [1]; anti-miR, 48 hrs)",membrane capacitance (Cm) (HUVECs [2]),"target gene (TGFB2, SMAD2) mRNA (HUVECs [1]; mimic 25 nM)","target gene (TGFB2, SMAD2) protein levels (HUVECs [1]; mimic 25 nM, Western blot)",expression of ACVR1 and ROCK1 (HUVECs [1]; mimic transfection),"CD31 and VE-cadherin, mRNA and protein levels [3]",COL1A1 and FSP-1 staining (immunostaining) [3],"TGFB2, SMAD2, SLUG, FSP-1, COL1A1 (mRNA and protein) [3]",endothelial markers CD31 and VE-cadherin on ECs membrane (immunostaining) [3],phosphorylation of SMAD2 [3],"luciferase activity, 3′-UTR-SMAD2 reporter (3′UTR of SMAD2)","luciferase activity, 3′-UTR-TGFB2 reporter (3′UTR of TGFB2)"
"anti-miR-148b: miR-148b inhibitor oligonucleotide; suitable inhibitor: hsa-miR-148b-3p miRCURY LNA inhibitor, CAAAGTTCTGTGATGCACTG (SEQ ID NO: 6) (commercial miRCURY LNA inhibitor, LNA positions not given here)",increased,suppression,up-regulation,strong up-regulation,upregulation,decreased,increased,appearance,without detectable changes,increased,,,,,,,,,,
B1,,,,,,,,,,,reduced,reduced,did not affect,rescued,decrease,decreased,maintenance,reduced,decreased luciferase activity,decreased luciferase activity
